These results are taken from US12390437B2, “Itaconic acid derivatives and uses thereof intreating an inflammatory disease or a disease associated with an undesirable immune response” (Sitryx Therapeutics Limited, priority 2019, dated 2025).

Where two headings read alike, the source gives them in different places. Some results are limits rather than exact numbers.

Data set [1] in a line: Mouse pharmacokinetic study, intravenous dosing. The format is in vivo. Conditions: male, C57BL/6, mouse, iv, plasma, 10 mg/kg i.v., read-out: Parent compound concentration following intravenous administration. The procedure: Pharmacokinetic studies were carried out in 6-8-week-old male C57BL/6 mice having free access to food and water. Intravenous dosing was conducted at 10 mg/kg (5 mL/kg; vehicle: 10% DMSO-90% (25% HP-13-CD in water)) via tail vein injection, with sampling at 3 min, 8 min, 15 min, 30 min, 1, 2, 4, 6 and 8 hours, i.e., 9 time points in total (N=3/time point), using semi-serial bleeding for plasma. Oral compound administration, via gavage, was carried out at 100 mg/kg (10 mL/kg; vehicle: 5% DMSO-95% (0.5% HPMC+0.1% Tween 80 in water)), with sampling at 5 min, 15 min, 30 min, 1, 2, 4, 6, 8 and 24 hours, i.e., 9 time points in total (N=3/time point), using semi-serial bleeding for plasma.
For both intravenous and oral routes, the mice were restrained manually at the designated time points, with ca. 110 μL of blood being taken into K2EDTA tubes via the facial vein. Blood samples were put on ice and centrifuged to obtain plasma samples from which the concentration at each time point was measured by LC-MS/MS.

Data set [2] relates to IL-1β cytokine output from THP-1s. Nature of the data set: THP-1 AlphaLISA IL-1β cytokine assay. Type of data set: cell-based, human. Conditions: LPS 24 hr then Nigericin 1 hour, read-out: IL-1β (IC50). The procedure:
Measuring Inhibitory Effects on IL-1β and IL-6 Cytokine Output from THP-1s
The cytokine inhibition profiles of compounds of formula (IW-1) were determined in a differentiated THP-1 cell assay. All assays were performed in RPMI-1640 growth medium (Gibco), supplemented with 10% fetal bovine serum (FBS; Gibco), 1% penicillin-streptomycin and 1% sodium pyruvate unless specified otherwise. The IL-1β and IL-6 cytokine inhibition assays were each run in a background of differentiated THP-1 cells as described below. All reagents described were from Sigma-Aldrich unless specified otherwise. Compounds were prepared as 10 mM DMSO stocks.
THP-1 cells were expanded as a suspension up to 80% confluence in appropriate growth medium. Cells were harvested, suspended, and treated with an appropriate concentration of phorbol 12-myristate 13-acetate (PMA) over a 72 hr period (37° C./5% CO2).
Following 72 hrs of THP-1 cell incubation, cellular medium was removed and replaced with fresh growth media containing 1% of FBS. Working concentrations of compounds were prepared separately in 10% FBS treated growth medium and pre-incubated with the cells for 30 minutes (37° C./5% CO2). Following the 30 minute compound pre-incubation, THP-1s were treated with an appropriate concentration of LPS and the THP-1s were subsequently incubated for a 24 hr period (37° C./5% CO2). An appropriate final concentration of Nigericin was then dispensed into the THP-1 plates and incubated for 1 hour (37° C./5% CO2) before THP-1 supernatants were harvested and collected in separate polypropylene 96-well holding plates.
Reagents from each of the IL-1β and IL-6 commercial kits (Perkin Elmer) were prepared and run according to the manufacturer's instructions. Subsequently, fluorescence signal detection in a microplate reader was measured (EnVision® Multilabel Reader, Perkin Elmer).
Percentage inhibition was calculated per cytokine by normalising the sample data to the high and low controls used within each plate (+/−LPS respectively). Percentage inhibition was then plotted against compound concentration and the 50% inhibitory concentration (IC50) was determined from the resultant concentration-response curve.
On the technique in general: In Alpha technology, singlet oxygen from a donor bead excites a nearby acceptor bead.

The mark [3] stands for this setting: Homo sapiens, PMA-differentiated THP-1 cells.
Where [4] appears, read: Homo sapiens, THP-1, PMA-differentiated THP-1 cells.

For the compound `C=C(CC(=O)OC12CC3CC(CC(C3)C1)C2)C(=O)OCC(=O)O` [Example 172, 2-((4-((-adamantan-1-yl)oxy)-2-methylene-4-oxobutanoyl)oxy)acetic Acid], the concentration at 0.05 h in data set [1] (time 0.05 h) amounted to 23700 ng/mL. Also, the concentration at 0.133 h in data set [1] (time 0.133 h) was 11300 ng/mL. For the same compound, the concentration at 0.25 h in data set [1] (time 0.25 h) worked out at 2640 ng/mL. The concentration at 0.5 h in data set [1] (time 0.5 h) amounted to 1210 ng/mL. For the same compound, in data set [1] (time 1 h), the concentration at 1 h is 75 ng/mL. In addition, the concentration at 2 h in data set [1] (time 2 h) was 9.9 ng/mL. Also, in data set [1] (time 4 h), the concentration at 4 h stood at 6.1 ng/mL. In addition, in data set [1] (time 6 h), the concentration at 6 h was less than 4 ng/mL. For the same compound, in data set [1] (time 8 h), the concentration at 8 h was less than 4 ng/mL. In data set [2] (setting [3]), the IC50 (as a rule, the concentration needed to halve the response being measured) amounted to 23.8 µM.
With `C=C(CC(=O)O[C@H](C)CCCCC)C(=O)OCC(=O)O` [Example 173, (R)-2-((4-(heptan-2-yloxy)-2-methylene-4-oxobutanoyl)oxy)acetic acid], in data set [2] (setting [4]), the IC50 worked out at 27.6 µM.
`C=C(CC(=O)OC(C)CCCCCCC)C(=O)OCC(=O)O` (stereo not shown) [Example 174, 2-((2-methylene-4-(nonan-2-yloxy)-4-oxobutanoyl)oxy)acetic acid]: in data set [2] (setting [4]), the IC50 is 10.9 µM.
On the same count and under the same terms, the same measure for `C=C(CC(=O)OC(C)c1cc(Cl)cc(Cl)c1)C(=O)OCC(=O)O` (stereo not shown) [Example 176, 2-((4-(1-(3,5-dichlorophenyl)ethoxy)-2-methylene-4-oxobutanoyl)oxy)acetic acid]: 12 µM.
The same measure, in the same setting: the same measure for `C=C(CC(=O)OC(C)Cc1cc(Cl)cc(Cl)c1)C(=O)OCC(=O)O` (stereo not shown) [Example 177, 2-((4-((1-(3,5-dichlorophenyl)propan-2-yl)oxy)-2-methylene-4-oxobutanoyl)oxy)acetic acid]: 20.5 µM; for `C=C(CC(=O)OC(C1CCCCC1)C(F)(F)F)C(=O)OCC(=O)O` (stereo not shown) [Example 180, 2-((4-(1-cyclohexyl-2,2,2-trifluoroethoxy)-2-methylene-4-oxobutanoyl)oxy)acetic acid]: 8.2 µM.
Same read-out and setting: the same measure for `C=C(CC(=O)OC1C2CCCC1CCC2)C(=O)OCC(=O)O` (stereo not shown) [Example 181, 2-((4-(bicyclo[3.3.1]nonan-9-yloxy)-2-methylene-4-oxobutanoyl)oxy)acetic acid]: 32.8 µM; for `C=C(CC(=O)O[C@H](C)CCCCCCC)C(=O)OCC(=O)O` [Example 183, (R)-2-((2-methylene-4-(nonan-2-yloxy)-4-oxobutanoyl)oxy)acetic acid]: 9.6 µM.
For the compound `C=C(CC(=O)O[C@H](C)C1CCCCC1)C(=O)OCC(=O)O` [Example 184, (R)-2-((4-(1-cyclohexylethoxy)-2-methylene-4-oxobutanoyl)oxy)acetic acid], the IC50 in data set [2] (setting [4]) came to 33.9 µM.
Same read-out and setting: the same measure for `C=C(CC(=O)O[C@H](C)CCCCCC)C(=O)O[C@H]1[C@@H]2CC[C@H]1CN(S(C)(=O)=O)C2` [Example 186, 1-((endo)-3-(methylsulfonyl)-3-azabicyclo[3.2.1]octan-8-yl) 4-((R)-octan-2-yl) 2-methylenesuccinate]: 3.5 µM; for `C=C(CC(=O)O[C@H](C)CCCCCC)C(=O)OCc1cc(=O)[nH]o1` [Example 187, (R)-4-(octan-2-yl) 1-((3-oxo-2,3-dihydroisoxazol-5-yl)methyl) 2-methylenesuccinate]: 2.9 µM; for `C=C(CC(=O)O[C@H](C)CCCCCC)C(=O)O[C@H](CC(=O)O)C(F)(F)F` [Example 188, (R)-4,4,4-trifluoro-3-((2-methylene-4-(((R)-octan-2-yl)oxy)-4-oxobutanoyl)oxy)butanoic Acid]: 3.5 µM.
The same measure, in the same setting: the same measure for `C=C(CC(=O)OC1(C2CCCCC2)CCC1)C(=O)OCC(=O)O` [Example 191, 2-((4-(1-cyclohexylcyclobutoxy)-2-methylene-4-oxobutanoyl)oxy)acetic acid]: 26.6 µM; for `C=C(CC(=O)OC1(CCCCC)CCC1)C(=O)OCC(=O)O` [Example 194, 2-((2-methylene-4-oxo-4-(1-pentylcyclobutoxy)butanoyl)oxy)acetic acid]: 24.8 µM; for `C=C(CC(=O)OC1(C)CC2(CCCCC2)C1)C(=O)OCC(=O)O` [Example 195, 2-((2-methylene-4-((2-methylspiro[3.5]nonan-2-yl)oxy)-4-oxobutanoyl)oxy)acetic acid]: 24.3 µM.
`C=C(CC(=O)OC1CC2CCC1(C)C2(C)C)C(=O)OCC(=O)O` (stereo not drawn) [Example 196, 2-((2-methylene-4-oxo-4-(((exo)-1,7,7-trimethylbicyclo[2.2.1]heptan-2-yl)oxy)butanoyl)oxy)acetic acid]: the IC50 in data set [2] (PMA-differentiated THP-1 cells) worked out at 18.8 µM.
For the compound `C=C(CC(=O)OC1C(C)(C)CCCC1(C)C)C(=O)OCC(=O)O` [Example 197], the IC50 in data set [2] (setting [4]) came to 21.4 µM.
On the same count and under the same terms, the same measure for `C=C(CC(=O)O[C@H](C)c1ccc(C(F)(F)F)cc1)C(=O)OCC(=O)O` [Example 200, (R)-2-((2-methylene-4-oxo-4-(1-(4-(trifluoromethyl)phenyl)ethoxy)butanoyl)oxy) acetic acid]: 11.5 µM; for `C=C(CC(=O)O[C@@H](C)c1ccc(C(F)(F)F)cc1)C(=O)OCC(=O)O` [Example 201, (S)-2-((2-methylene-4-oxo-4-(1-(4-(trifluoromethyl)phenyl)ethoxy)butanoyl)oxy) acetic acid]: 24.6 µM.
As for `C=C(CC(=O)OC1(C2CCCCC2)CC1)C(=O)OCC(=O)O` [Example 202, 2-((4-(1-cyclohexylcyclopropoxy)-2-methylene-4-oxobutanoyl)oxy)acetic acid], the IC50 in data set [2] (setting [3]) worked out at 36.7 µM.
For the compound `C=C(CC(=O)O[C@@H](C)C1CCCCC1)C(=O)OCC(=O)O` [Example 203, (S)-2-((4-(1-cyclohexylethoxy)-2-methylene-4-oxobutanoyl)oxy)acetic acid], the IC50 in data set [2] (setting [4]) came out at 22 µM.
For the compound `C=C(CC(=O)OC(C(C)(C)C)C(C)(C)C)C(=O)OCC(=O)O` [Example 204, 2-((2-methylene-4-oxo-4-((2,2,4,4-tetramethylpentan-3-yl)oxy)butanoyl)oxy)acetic Acid], in data set [2] (setting [3]), the IC50 amounted to 41.7 µM.
On to `C=C(CC(=O)O[C@H](C)CCCCCC)C(=O)O[C@@H](CC(=O)O)C(F)(F)F` [Example 205, (S)-4,4,4-trifluoro-3-((2-methylene-4-(((R)-octan-2-yl)oxy)-4-oxobutanoyl)oxy)butanoic acid], for which the IC50 in data set [2] (setting [4]) was 1.7 µM.
The same measure, in the same setting: the same measure for `C=C(CC(=O)OC1(CCCCC)CC1)C(=O)OCC(=O)O` [Example 206, 2-((2-methylene-4-oxo-4-(1-pentylcyclopropoxy)butanoyl)oxy)acetic acid]: 19.1 µM; for `C=C(CC(=O)OC1C(C)(C)CC1(C)C)C(=O)OCCC(=O)O` [Example 207, 3-((2-methylene-4-oxo-4-(2,2,4,4-tetramethylcyclobutoxy)butanoyl)oxy) propanoic Acid]: 100 µM.
